Values belong to the molecule of their own block, whether it stands above or below them.
Key:
[1] = test system: caspase 3, caspase 9 and PARP; experiment: Western blot of caspase-3, caspase-9 and PARP cleavage in HLE; assay type: cell-based, human; conditions: 72 h
Protocol: FIG. 38. IMSs, induce cleavage of caspase-3, caspase-9 and PARP. Western blot analysis for the effect of IBN 15, IBM 19, IBN 24, IBM 25, IBN 32 on the cleavage of caspase-3, Caspase-9 and PARP in HLE cells after 72 h exposure to indicated doses of IMSs.
The HLE cells were seeded at a density of 4×10^5 in 10 cm dish. After 24 h incubation, the cells were replaced with fresh 10% DMEM medium and then treated with 60 μM of IBN-15, 90 μM of IBN-19, 90 μM of IBN-24, 30 μM of IBN-25 and 20 μM of IBN 32 and 0.045% DMSO as control for 72 h. Whole cell lysates were prepared on day 3 with lysis buffer [125 mM Tris (pH 7.4), 2% Sodium dodecyl sulfate, 10% glycerol, 6M urea and a protease inhibitor cocktail (Sigma) and 0.02% Bromophenol blue]. The lysates were sonicated for 30 seconds and then heated for 5 mins at boiling temperature. The lysates were centrifuged at 13000 rpm for 10 mins and the protein concentration of each sample was estimated using the BCA protein assay. The lysates was then mixed with 5% 2-mercaptoethanol and stored at −80 C. For Western blotting, samples containing 50 μg of total cell lysate were loaded onto a SDS-PAGE and subjected to electrophoresis. Proteins were transferred to a nitrocellulose membrane and then blocked with 5% non-fat dry milk in Tris buffer saline containing 0.1% Tween 20 for 60 min at 37 C. The membranes were probed with a primary antibody overnight at 4 C in TEST containing 5% Bovine serum albumin. Then the membrane was incubated with horseradish peroxidase (HRP)-conjugated anti-rabbit or anti-mouse secondary antibodies (GE Health care, Chalfont St Giles, UK). Detection was performed with enhanced chemiluminescence (ECL) reagent (Amersham Arlington Heights, Ill.) according to the manufacturer's protocol. Rabbit polyclonal Phospho-p53 (Ser15, 20, 46, 392), anti-caspase-9, anti-caspase-3, anti-PARP antibodies were purchased from Cell Signaling Technology, Inc. (Beverly, Mass., USA). Antibodies against p53 and p21 were purchased from Santa Cruz Biotechnology (Santa Cruz, Calif., USA).

[2] = test system: p53 signaling pathway-associated gene expression in HLE cells; experiment: Real-time PCR array of p53 signaling pathway-associated genes; assay type: cell-based, human; conditions: 48 h
Protocol: FIG. 42. Real-Time PCR array analysis of p53 signaling pathway-associated gene expression. (A) Anti-apoptotic genes. (B) Growth inhibition gene SESN2. (C) Cell cycle check point genes. (D) Cell proliferation genes. (E) DNA repair gene ATM. The relative level of gene expression was normalized with housekeeping gene GAPDH. Values are expressed as mean±standard deviation.
Cells were seeded at a density of 4×10^5 cells per dish in 10 cm dishes. Next day, the cells were exposed to 90 uM of IBN-19, 90 uM of IBN-24, 40 uM of IBN-25 and 0.045% of DMSO (Dimethyl Sulphoxide) as the control. After 48 hrs, total RNAs were extracted from the cells using Nucleospin RNA II kit as per the manufacturer's istructions. RNA quality and yield were evaluated after spectrophotometer measurements.
The human apoptosis PCR array (RT^2 Profiler) was used to analyze mRNA levels of 84 key genes involved in apoptosis, in a 96-well format, according to the manufacturer's instructions (Super Array Bioscience). First-strand cDNA was synthesized with 1 μg of RNA by using a PCR array first strand-synthesis kit (C-03; Super array Bioscience). This kit uses reverse transcriptase (Power Script; Super array Bioscience) and a combination of random primers and oligo dT primers. The total volume of the reaction was 20 μL diluted to 100 μL. PCR reactions were performed using real-time PCR (79s00HT 96-well block with RT^2 Real-Time SYBR Green PCR master mix PA-012; Applied Biosystems Instruments 7500). The total volume of the PCR reaction was 25 μl. An equivalent of […] of RNA was applied to the PCR reaction. The thermocycler parameters were 95° C. for 10 minutes, followed by 40 cycles of 95° C. for 15 seconds and 60° C. for 1 minute. Relative changes in gene expression were calculated using the ΔΔCt (cycle threshold) method. An average of the number of cycles of the five housekeeping genes, GAPDH, Actin-β, β2m, Hprt1, and Rpl13d, was used to normalize the expression between samples. The expression data are presented as fold regulation. GAPDH gene expression levels were utilized as an internal control to normalize the data. Reported fold changes in expression are the ratios of treatment over control values.
To obtain more information on how the IMSs influence other gene expression in the HLE cells, 84 genes related to p53 signal transduction were profiled by using the RT^2 Profiler array (Super Array Bioscience) (FIG. 42A, B, C, D, E). The array includes keys genes relevant to p53, apoptosis, cell cycle, cell growth, proliferation, differentiation, and DNA repair.

HLE cells [3] = experiment: Growth inhibition assay (MTT), HLE; assay type: cell-based, human; conditions: Homo sapiens
Protocol: The effect of IMSs (IBN-15, IBN-19, IBN-24, IBN-25 and IBN-32) on the proliferative properties of p53 mutant cell line HLE was examined. The cytotoxicity activity and proliferation inhibition of IMSs in tumor cells were measured by MTT. […] The control experiments with DMSO alone (0.05% v/v) had no effect on cell proliferation. […] (Table 4) Microscopic observation on the cell cultures visually confirmed the inhibition on cell proliferation by IMSs. (FIG. 35)

HLE cells [4] = experiment: Cell cycle analysis (PI flow cytometry); assay type: cell-based, human; conditions: 72 h
Protocol: FIG. 37. IMSs arrest Hepatocarcinoma cells. Cells were treated with vehicle and IBN 15, IBN 19, IBN 24, IBN 25 and IBN 32 for 72 h, and cell cycle distribution was assessed by flow cytometry. A) Example FACS profiles of propidium iodide-stained control cells, and cells treated with IMSs respectively. B) % of cells in cell cycle phase C) % of cells in subG0 population. Each value is the mean±S.D. of three determinations.
To perform cell cycle distribution analysis, 4×10^5 cells were plated in 10 cm dish. The cells (70% confluence) were serum-starved for 24 h to synchronize them in the G0 phase of the cell cycle. After 24 h incubation, the cells were replaced with fresh 10% DMEM medium and then treated 60 μM of IBN-15, 90 μM of IBN-19, 90 μM of IBN-24, 30 μM of […] and 20 μM of IBN-32) and 0.045% DMSO as control for 72 h. The floating and trypsinized adherent cells were collected and washed with PBS. The cell pellets were resuspended in 1 ml of PBS and fixed by the addition of 70% ice-cold ethanol and stored at −20° C. After incubation for 24 hr, the cells were re-pelleted by centrifugation, the cells were washed once with PBS and resuspended in 0.1 mL of PBS containing 100 μg/ml of RNase and then incubated at 37° C. for 15 min. Finally, the cells were stained with 0.5 ml of PI solution (100 μg/mL in PBS) for 30 min. Cell cycle distribution was detected by a BD FACS array flow cytometer (Becton Dickinson). Cells with sub-G0 DNA were classified as apoptotic cells.

Huh7 cells = experiment: HCC xenograft model (Huh7 cells in Balb/c nude mice); assay type: in vivo, mouse; conditions: 3 weeks
Protocol: (§1) Balb/c Nude mice, 5-6 weeks old, were inoculated with 1×10^7 Huh7 cells in 0.2 ml volume of Matrigel/DMEM mix. Since not every mouse developed a tumor after the inoculation of HCC cells, only those with visible tumors (about 8 weeks after inoculation) were used for subsequent experiment. The tumor-bearing mice were randomly divided to the control and the treatment group. (n=3), respectively. Mice in the treatment group had free access to drinking water containing DBZIM (2 grams/liter) only, while mice in the control group had free access to Water only. The compound treatment lasted for 3 weeks. The tumor size was measured weekly, and the tumor volume was calculated using the formula: 0.52×width^2×length.
as §1, with “group” for “group.”, “compound 9 (IBN-9) at 0.6 g/l or 1.5 g/l” for “DBZIM (2 grams/liter)”, “water” for “Water”

MKN 28 = experiment: Growth inhibition assay (MTT), MKN 28; assay type: cell-based, human; conditions: MKN 28, 72 h
Protocol: (§4) The percentage of growth inhibition was determined by using a MTT assay to measure viable cells. For the MTT assay, 1×10^3 cells per well were cultured in 96-well plates and treated with 0 to 100 μM of various types of IMSs for 72 h. After incubation for specified times at 37° C. in a humidified incubator, culture medium replaced with 10 μL of MTT reagent (5 mg/mL) contains 100 μL medium was added to each well and further incubated for 4 h. The reaction was stopped by adding 100 μL of DMSO. Absorbance was measured at 570 nm on a micro plate reader (SpectroMax 190, Molecular Devices). Data were presented from three separate experiments, and the percentage of IMSs induced cell growth inhibition was determined where DMSO-treated cells (control) were taken as 100%.
(§5) First, the cytotoxic effect of these drugs on these cells was investigated using the MTT assay. Cells were seeded into 96 well plates and treated with increasing concentrations of these synthetic organic molecules for 72 h, and then the cytotoxic effect was measured.

MCF-10A = experiment: Growth inhibition assay (MTT), MCF-10A; conditions: 72 h
Protocol: as §4, §5

MDAMB231 = experiment: Growth inhibition assay (MTT), MDAMB231; assay type: cell-based, human; conditions: MDAMB231, 72 h
Protocol: as §4, §5

HLE cells [5] = experiment: Annexin V staining and flow cytometry, HLE; assay type: cell-based, human; conditions: 24 hr, TRAIL 100 ng/ml
Protocol: (§2) FIG. 22. […] HLE or HepG2 cells were incubated with DBZIM of various concentrations for 6 hr, and assayed for caspase 3/7 activity and LDH releasing (expressed as % toxicity). DBZIM induced apoptosis as characterized by annexin V staining using flow cytometer in HLE (E) and HepG2 (F). Scatter plot and histogram gave the representative information on the cell population distribution while bar graphs quantified the percentage of apoptotic cells from the histogram. HLE and HepG2 cells were treated by DBZIM of various concentrations for 24 hr before harvesting for annexin V staining and flow cytometric analysis.
(§3) HLE and HepG2 cells were treated with various concentrations of DBZIM or TRAIL (100 ng/ml) for 24 hr, harvested and labeled with Annexin V-FITC (BioVision, CA, USA). The labeled cells were analysed by flow cytometry FACSCalibur ([…], NJ, USA) and CellQuest software. Cells showing green staining in the plasma membrane were considered as apoptotic cells.

HepG2 cells = experiment: Annexin V staining and flow cytometry, HepG2; assay type: cell-based, human; conditions: HepG2, 24 hr; TRAIL 100 ng/ml
Protocol: as §2, §3

Molecule: Cc1n(Cc2ccccc2)cc[n+]1Cc1ccccc1C(F)(F)F.[Cl-] [IBN-25, 1-benzyl-3-(2-trifluoromethylbenzyl)-2-methylimidazolium chloride]
activation and cleavage of caspase 3, caspase 9 and PARP [1]: induced significant activation and cleavage
anti-apoptotic gene BCl-2 expression [2]: significantly down regulated
cell proliferation genes (Mcl1, Egr1, Foxo3, Jun, Mdm4, Nf1, Prm1D, Sesn1, E2f11, Prkca, Brca1) [2]: significantly down regulated
increase of ATM gene expression vs control ([2]; IBN-19 90 uM, IBN-24 90 uM, IBN-25 40 uM): 9 folds
IC50 (HLE cells [3]; 72 h): 30 µM
IC50 (HLE cells [3]; 120 h): 35 µM
cells in the S phase (HLE cells [4]; at respective IC-50, control 24%): 14.3%
cells in the G2/M phase (HLE cells [4]; at respective IC-50, control 30%): 19.4%
cells in the G1 phase (HLE cells [4]; at respective IC-50, control 50%): 34.5%

IC50 (MKN 28): 10 µM
IC50 (MDAMB231): 20 µM
Molecule: CC(=O)Oc1ccc(Cn2cc[n+](-c3c(C)cc(C)cc3C)c2)cc1.[Cl-] [compound 9, 1-(2,4,6-trimethylphenyl)-3-(4-acetate-benzyl)-imidazolium chloride]
reduction of tumor volume (Huh7 cells; 0.6 g/l in drinking water): 43%
body weight or gross pathology (Huh7 cells; 0.6 g/l or 1.5 g/l in drinking water): No change in body weight or gross pathology
reduction of tumor volume (Huh7 cells; 1.5 g/l in drinking water): 62%
IC50 in normal breast epithelial cells (MCF-10A): no IC50

Molecule: Cc1n(Cc2ccccc2)cc[n+]1Cc1ccccc1.[Br-] [compound C, 1,3,-Dibenzyl-2-methylimidazolium bromide]
IC50 (MKN 28): 35 µM
IC50 in normal breast epithelial cells (MCF-10A): no IC50
IC50 (MDAMB231): 35 µM

B1: TRAIL: TNF-Related Apoptosis Inducing Ligand, used as a positive control for apoptosis (protein, UniProt P50591 1-281, looked up)
Tumor necrosis factor ligand …: MAMMEVQGGPSLGQTCVLIVIFTVLLQSLCVAVTYVYFTNELKQMQDKYSKSGIACFLKEDDSYWDPNDEESMNSPCWQVKWQLRQLVRKMILRTSEETISTVQEKQQNISPLVRERGPQRVAAHITGTRGRSNTLSSPNSKNEKALGRKINSWESSRSGHSFLSNLHLRNGELVIHEKGFYYIYSQTYFRFQEEIKENTKNDKQMVQYIYKYTSYPDPILLMKSARNSCWSKDAEYGLYSIYQGGIFELKENDRIFVSVTNEHLIDMDHEASFFGAFLVG
apoptosis (annexin V staining) (HLE cells [5]): not in HLE cells
apoptosis (annexin V staining) (HepG2 cells): only induced apoptosis in HepG2
